Km data for 1 substance are collected here from paper PMC10876487 (Synthetic and Systems Biotechnology, 2024).

Broadly, the Km is the concentration of substrate that gives half-maximal velocity.

For the experiment, the target named is T1, ALDH-40 (Bacillus subtilis, UniProt P94358).
T1 sequence (P94358 1-485): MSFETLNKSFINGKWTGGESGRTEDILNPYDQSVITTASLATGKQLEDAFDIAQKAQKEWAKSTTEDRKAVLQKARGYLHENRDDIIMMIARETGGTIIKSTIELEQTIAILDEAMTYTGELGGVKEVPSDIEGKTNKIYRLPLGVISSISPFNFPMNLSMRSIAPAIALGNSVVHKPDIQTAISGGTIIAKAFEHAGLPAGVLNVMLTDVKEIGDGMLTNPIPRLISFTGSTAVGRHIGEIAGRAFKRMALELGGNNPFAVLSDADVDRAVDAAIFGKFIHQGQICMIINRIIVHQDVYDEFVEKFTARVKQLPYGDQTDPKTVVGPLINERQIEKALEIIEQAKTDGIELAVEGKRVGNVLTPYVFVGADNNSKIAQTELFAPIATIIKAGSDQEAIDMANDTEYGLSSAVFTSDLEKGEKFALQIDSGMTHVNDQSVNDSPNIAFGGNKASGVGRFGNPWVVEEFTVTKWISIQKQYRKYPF
Nature of the experiment: HPLC, Michaelis-Menten fit. The following applies: 0.5 μM enzyme, NAD+ 2 mM, 50 mM Tris-HCl pH 8.0, 30 °C. It is filed as biochemical.

On to cinnamaldehyde [2a], for which the Km stood at 10 ± 2.7 mM.
